Assay: passive permeability, PAMPA, ADME assay (AID 1508612)
Conditions: pH 7.4, 30.0 min, 50.0 µM

Row | SMILES | Papp [×10⁻⁶ cm/s]
1 | COc1ccc(C)cc1Nc1c2c(nc3ccccc13)CCC2 | > 1000
2 | NC(=O)COc1ccc(C2CC(=O)Nc3n[nH]c(Nc4ccccc4)c32)cc1 (stereo unspecified) | 2.8
3 | COc1ccc(NC(C)=O)cc1S(=O)(=O)Nc1ccc(Br)cc1 | 627
4 | COc1ccc2cc1Oc1ccc(cc1)C[C@@H]1c3c(cc(OC)c4c3Oc3cc5c(cc3O4)CCN[C@H]5C2)CCN1C | 217
5 | CCOc1ccc(CCNC(=O)c2cc3sccc3n2Cc2ccc(-n3cncn3)cc2)cc1OCC | > 1000
6 | Fc1ccc(-c2ccc(Nc3nc(-c4ccncc4)nc4ccccc34)cc2F)cc1 | 93.6
7 | O=C(NCCCc1ccccc1)C1CCN(c2nc(-c3ccc(Br)cc3)cs2)CC1 | 18
8 | Cc1cc(NS(=O)(=O)c2ccc(N(C)C(=O)Cc3ccc(Cl)c(Cl)c3)cc2)no1 | 48.1
9 | Fc1cc(Nc2nc(-c3ccncc3)nc3ccccc23)ccc1OCC(F)(F)F | 58.8
10 | CC(C)C[C@H]1C(=O)N2CCC[C@H]2[C@]2(O)O[C@](NC(=O)[C@@H]3C=C4c5cccc6[nH]c(Br)c(c56)C[C@H]4N(C)C3)(C(C)C)C(=O)N12 | 876
11 | C=C1[C@@H](C)C2[C@H](Cc3ccccc3)NC(=O)[C@@]23C(/C=C/C[C@H](C)C[C@@](C)(O)/C=C/[C@@H]3OC(C)=O)[C@@H]1O (stereo partly specified) | 50
12 | Cc1c(NC2=C(Cl)C(=O)N(c3ccccc3)C2=O)c(=O)n(-c2ccccc2)n1C | 123
13 | Cc1cccc(-n2cnc3cc(C(=O)N4CCCC(C(F)(F)F)C4)ccc32)c1 (stereo unspecified) | > 1000
14 | COC(=O)c1cc2occc2n1Cc1nc(-c2ccc(C)cc2)oc1C | 40.3
15 | O=C1Nc2ccccc2/C1=C\c1cc(F)c(O)c(F)c1 | 26.9
16 | O=S(=O)(Nc1ccc(S(=O)(=O)Nc2nccs2)cc1)c1ccc2ccccc2c1 | 7.37
17 | CN1CCN(c2ccc(Nc3nn4c(=O)c5ccccc5nc4s3)cc2)CC1 | 653
18 | COc1ccc(Cl)cc1NC(=O)c1sc2nc3c(cc2c1N)N1CCC3CC1 | 55
19 | Cc1ccnc(NC(=S)N2CCN(c3cccc(C(F)(F)F)n3)CC2)c1 | 866
20 | C[C@H]1CN(C(=O)c2nn(C)c3ccccc23)C[C@@H]1c1nc(-c2ccncc2)no1 | 907
21 | Cc1ccc(S(=O)(=O)Nc2cnccc2C(=O)Nc2cccc3ccccc23)cc1 | 288
22 | O=C(Cc1nc2ccc(Cl)cc2[nH]1)Nc1ccc(S(=O)(=O)Nc2nccs2)cc1 | < 1
23 | CC(=O)c1c(C)[nH]c(C(=O)Nc2cccc(S(=O)(=O)N3CCOCC3)c2)c1C | 475
24 | CC(C)CN(C[C@@H](O)[C@H](Cc1ccccc1)NC(=O)O[C@@H]1CO[C@H]2OCC[C@H]21)S(=O)(=O)c1ccc(N)cc1 | 192
25 | Cc1cnc(-c2ccccc2C2CC2)nc1NCc1ccc(-c2cccnc2)cc1 | > 1000
26 | Fc1cc(F)cc(Nc2nc(-c3ccncc3)nc3ccccc23)c1 | 84.9

Row | SMILES | Papp [×10⁻⁶ cm/s]
27 | Cc1cc(NS(=O)(=O)c2ccc3c(c2)CCC(=O)N3)ccc1F | 412
28 | CCCN1CNc2c(c(=O)[nH]c(=S)n2CCc2cccc(Cl)c2Cl)C1 | > 1000
29 | CCC(CC)c1cc([C@H]2CN3CC[C@H]2C[C@@H]3CNS(=O)(=O)c2cccs2)nc(-c2ccncc2)n1 | > 1000
30 | O=S(=O)(c1ccc(Cl)cc1)c1ccccn1 | 407
31 | CC(C)NC(=O)N1C[C@@H]2C[C@H](C1)c1ccc(-c3cccc(C(F)(F)F)c3)c(=O)n1C2 | 189
32 | O=S(=O)(Nc1nccs1)c1ccc(NCc2cccc3cc[nH]c23)cc1 | 2.4
33 | O=C(O)c1cccc(-n2cccc2/C=C2/NC(=O)N(c3cccc(Cl)c3)C2=O)c1 | 3.96
34 | COc1ccccc1C(=O)Nc1nnc(SCc2cc(=O)c3ccccc3[nH]2)s1 | 287
35 | COc1ccc(-c2c(-c3cc(C(=O)O)ccn3)ncn2C)cc1 | 3.06
36 | COc1ccc(-n2nc(C3CCCN(C(=O)Cc4ccccn4)C3)[nH]c2=O)cc1 (stereo unspecified) | 106
37 | O=C(Cc1ccc(Cl)c(Cl)c1)Nc1ccc([S+](=O)([O-])Nc2ccccn2)cc1 | 651
38 | O=C([C@@H]1CCCN(c2ccc3[nH]c(C4(n5cc(Cl)cn5)CC4)nc3n2)C1)N1CCCC1 | 225
39 | O=[S+]([O-])(Nc1ccccc1)c1ccc(NCc2cccc(C(F)(F)F)c2F)cc1 | 306
40 | Nc1nc(N)c2c(OCC3CCN(Cc4ccccc4F)CC3)cccc2n1 | 938
41 | Cc1cc(-c2nnc3n2CCCCC3)c(C)n1-c1ccc(Cl)cc1 | > 1000
42 | COc1cc2ncnc(Oc3cccc(NC(=O)Nc4cc(C(C)(C)C(F)(F)F)on4)c3)c2cc1OC | 36.1
43 | Cc1cc(-c2nnc3n2CCCCC3)c(C)n1-c1ccc(F)cc1 | 314
44 | Cc1ccc(CCNC(=O)C2CCCN(C(=O)c3cc4sccc4n3C)C2)cc1 (stereo unspecified) | > 1000
45 | Cc1cccc(-c2csc(N3CCC(C(N)=O)CC3)n2)c1 | 475
46 | CC(C)n1cc(-c2ccc3c(c2)N(C)CC3)c2c(NS(=O)(=O)c3ccn(C)n3)ccnc21 | > 1000
47 | CCC(=O)NC(c1ccc(OC)cc1)c1cc(Cl)c2cccnc2c1O (stereo unspecified) | 687
48 | COc1ccc(-c2nc(CS(=O)CC(=O)N3CCC4(CC3)OCCO4)c(C)o2)cc1 (stereo unspecified) | 91.7
49 | COc1ccc(C[C@@H]2C(=O)N[C@H](C)C(=O)N(C)[C@@H]3C(=O)N(C)[C@@H](Cc4ccc(O)c(c4)Oc4ccc(cc4)[C@H]3O)C(=O)N[C@@H](C)C(=O)N[C@H](C)C(=O)N2C)cc1 | 4.5
50 | CC(=O)c1sc(NC(=O)c2ccco2)nc1-c1ccccc1 | 752
51 | Nc1ccccc1OCCn1c(CCNC(=O)C2CCCCC2)nc2ccccc21 | 746
52 | CNC(=O)c1ccccc1Nc1nc(Nc2ccc(N3CCOCC3)cc2OC)ncc1Cl | > 1000

Row | SMILES | Papp [×10⁻⁶ cm/s]
53 | COc1ccc(-n2cnc3cc(C(=O)N4CCCCC4)ccc32)cc1 | 624
54 | CC1=Nc2cc(C(=O)NCc3ccccc3Cl)ccc2Sc2c(C)ccc(C)c21 | 161
55 | O=C(Nc1nc(-c2ccccc2)cs1)c1ccncc1NS(=O)(=O)c1c(F)cc(F)cc1F | 459
56 | COc1cccc2nc(-c3cccs3)nc(NN3C(=O)C=C(C)C3=O)c12 | 353
57 | CC(C)NC(=O)c1nc(-c2ccc(Cl)nc2)c2ccccn12 | > 1000
58 | Cc1nc(-c2ccco2)cc([C@H]2CN3CC[C@H]2C[C@@H]3CNC(=O)NC2CCCCC2)n1 | 475
59 | Cc1ccc(S(=O)(=O)Nc2ccc(C(=O)Nc3nc(-c4ccccc4)cs3)cc2Cl)cc1 | 23.9
60 | O=C1Nc2ccccc2C1Cc1cc(Cl)c(O)c(Cl)c1 (stereo unspecified) | 8.8
61 | Cc1nc2nc(NC(=O)c3ccc(C(C)(C)C)cc3)[nH]n2c(=O)c1Cl | 8.91
62 | O=C(Nc1ccc2oc(-c3cccnc3)nc2c1)c1ccc(-c2ccccc2)o1 | 771
63 | CCOC(=O)c1ccnc(CNCC(=O)N(CC)CCN(C)C)c1 | 40.4
64 | Fc1cc(Nc2nc(-c3ccncc3)nc3ccccc23)ccc1N1CCCCC1 | > 1000
65 | C=C1C(=O)OC2C1CCC(C)C1(O)C=CC(=O)C21C (stereo unspecified) | 64.6
66 | Cc1ccc(S(=O)(=O)Nc2cc(Br)ccc2C(=O)Nc2nc(-c3ccccc3)cs2)cc1 | 7.71
67 | CC(=O)c1c(C)[nH]c(C(=O)Nc2cccc([S+](=O)([O-])Nc3ccncc3)c2)c1C | 1.51
68 | CCOC(=O)c1cnc2ccc(-c3cncc(NS(=O)(=O)c4ccccc4)c3)cn12 | 705
69 | c1ccc(Nc2cc(-c3ccoc3)ncn2)cc1 | > 1000
70 | Cc1cccc2nc(-c3cccnc3)c(Nc3ccc(C(C)C)cc3)n12 | > 1000
71 | COC(=O)c1cc(Cl)ccc1NC(=O)CSc1ncc(S(=O)(=O)c2ccc(Br)cc2)c(=O)[nH]1 | 68.7
72 | CSc1ccc(/C=C/c2nc3ccccc3n2S(=O)(=O)c2cccc(Cl)c2)cc1 | 911
73 | Cc1ccc(-c2cc(C(=O)Nc3ccc(-c4nn[nH]n4)cc3)c3ccccc3n2)cc1C | 4.23
74 | Cc1cc(NS(=O)(=O)c2ccc(NC(=O)Cc3ccc(Cl)c(Cl)c3)cc2)n(C)n1 | 31.7
75 | Oc1ccc(CNc2ccccc2Br)c2cccnc12 | < 1
76 | COc1ccc(-c2csc(N3CCC(C(N)=O)CC3)n2)cc1OC | 270
77 | CC(C)(C)c1ccc(C(=O)Nc2cn3cc(-n4ccnc4)ccc3n2)cc1 | 952
78 | O=C(Nc1nc(-c2ccc(F)cc2)cs1)c1ccncc1NS(=O)(=O)c1ccc(F)cc1 | 755

Row | SMILES | Papp [×10⁻⁶ cm/s]
79 | CC(C)c1ccccc1-c1ncc(F)c(NC(C)(C)c2ccc(-n3ccnn3)cc2)n1 | 672
80 | Cc1cnc(-c2ccccc2C(C)C)nc1NCc1ccc(-n2ccnn2)cc1 | > 1000
81 | Cc1noc(C)c1-c1ccc2ncnc(NCc3cccc(Cl)c3)c2c1 | 970
82 | COc1ccc(-n2nc(C3CCCN(C(=O)c4ccc(C)cc4)C3)[nH]c2=O)cc1 (stereo unspecified) | 685
83 | COc1cc(NS(=O)(=O)c2ccc(C)cc2)c(C(=O)Nc2nc(-c3ccccc3)cs2)cc1OC | 325
84 | C[C@@H](NC(=O)c1ncnc(N)c1Cl)c1ncc(C(=O)Nc2cc(C(F)(F)F)c(Cl)cn2)s1 | > 1000
85 | Cc1ccccc1C(=O)N1CCc2cc(-c3csc(NC(=O)Cc4ccc5c(c4)OCO5)n3)ccc21 | > 1000
86 | CC[C@@H]1C(=O)N(C)c2cnc(Nc3ccc(C(=O)NC4CCN(C)CC4)cc3OC)nc2N1C1CCCC1 | 561
87 | COc1ccc(CNC(=O)CCCn2nc(C)c3c(C)n(-c4ccc(C)cc4)nc3c2=O)cc1OC | 235
88 | COc1ccc(/C=C2/C(=O)Nc3ccccc32)cc1O | > 1000
89 | C[C@@H](c1ccc2nccn2c1)n1nnc2ncc(-c3cnn(C)c3)nc21 | 40.7
90 | O=C(NCc1ccccc1)C1CCN(c2nc(-c3ccc(Br)cc3)cs2)CC1 | 23.2
91 | COc1ccc(-n2nc(C3CCCN(C(=O)c4ccccc4)C3)[nH]c2=O)cc1 (stereo unspecified) | < 1
92 | CCOC(=O)C1CCN(C(=O)Nc2ccc3c(c2)nc(C)n3C)CC1 | 38.4
93 | Nc1nc2c(s1)C(c1cccc(Cl)c1Cl)CC(=O)N2 (stereo unspecified) | 505
94 | CCN(CC)S(=O)(=O)c1ccc(N2CCCC2)c(NS(=O)(=O)c2ccccc2)c1 | 396
95 | N#Cc1cccc(-c2csc(N3CCC(C(N)=O)CC3)n2)c1 | 450
96 | Cc1ccc(S(=O)(=O)Nc2cnccc2C(=O)Nc2nc(-c3ccc(Cl)c(Cl)c3)cs2)cc1 | 51.5
97 | C#CCOc1ccc(-c2nnc(Nc3ccc(NC(C)=O)cc3)c3ccccc23)cc1 | 502
98 | Cc1ccc(S(=O)(=O)Nc2cnccc2C(=O)Nc2ccc(N3CCOCC3)cc2)cc1 | 53.3
99 | COc1cc(-c2cc3c(nc2-c2ccccc2)nc(C(=O)NC2CCN(C)CC2)n3C)ccn1 | > 1000
100 | Cc1cccc(S(=O)(=O)c2cn(Cc3ccccc3)c3cc(N4CCCC(C)C4)c(F)cc3c2=O)c1 (stereo unspecified) | > 1000
101 | O=C(Nc1nc(-c2ccccc2)cs1)c1ccccc1-n1cnnn1 | < 1
